According to patent publication US11685912B2, “Affinity purification of glycosidase-cleaving enzymes” (TAKEDA PHARMACEUTICAL COMPANY LIMITED, priority 2018, dated 2023):

Experiments:
α-Gal A [1] = biological target: T1, α-Gal A (Homo sapiens, UniProt P06280); conditions: buffer comprising Tris at 150 mM
T1 sequence (P06280 32-429): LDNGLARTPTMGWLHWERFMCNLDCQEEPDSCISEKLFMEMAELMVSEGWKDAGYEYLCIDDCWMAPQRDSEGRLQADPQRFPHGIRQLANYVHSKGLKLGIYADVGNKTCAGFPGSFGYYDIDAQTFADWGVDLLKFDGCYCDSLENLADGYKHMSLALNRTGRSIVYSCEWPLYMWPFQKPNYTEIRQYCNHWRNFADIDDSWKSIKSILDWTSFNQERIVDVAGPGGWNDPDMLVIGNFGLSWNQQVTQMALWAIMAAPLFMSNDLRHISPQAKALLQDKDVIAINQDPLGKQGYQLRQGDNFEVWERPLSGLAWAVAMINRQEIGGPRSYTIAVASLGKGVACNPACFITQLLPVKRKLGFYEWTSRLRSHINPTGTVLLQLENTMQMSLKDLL

α-Gal A [2] = biological target: T1, α-Gal A; conditions: 10 mM Tris vs 0 mM Tris
Description: FIG. 1 depicts Thermal Stability curves of α-Gal A at 0 mM (blue) and 10 mM (red) Tris buffer.

Structure (SMILES): NC(CO)(CO)CO [Tris, tris(hydroxymethyl)aminomethane]
- elution of α-Gal A from the affinity resin (α-Gal A [1]): effectively eluted
- α-Gal A thermal stability increase (α-Gal A [2]): 3 °C
